According to patent publication US20240270712A1, “BENZIMIDAZOLE COMPOUND OR SALT THEREOF, CANINE FILARIASIS CONTROL AGENT CONTAINING SAME, AND METHOD OF USE THEREOF” (NIHON NOHYAKU CO., LTD., priority 2021, published 2024):

Test system: L-3 stage larvae of canine filariae (Dirofilaria immitis)
Assay: Impact evaluation test on growth of canine filariae
Format: cell-based
Settings: 168 h, read-out: growth inhibition rate (growth from L3-stage larvae to L4-stage larvae)

Q: How did the inhibition at 50 ppm turn out when `FC(F)(F)C(F)(F)COc1ccc(-c2nc3cc(Br)c(Br)cc3[nH]2)cn1` [Compound 1-5, 5,6-dibromo-2-(6-(2,2,3,3,3-pentafluoropropyloxy)pyridin-3-yl)benzimidazole] was run?
A: ≥ 50%
